Measured values taken from patent US11608342B2, “PDE9 inhibitors with imidazo triazinone backbone and imidazo pyrazinone backbone for treatment of peripheral diseases” (H. LUNDBECK A/S, priority 2015, dated 2023).

Legend:
PDE9 = PDE9 (Homo sapiens (Human), UniProt O76083); test: PDE9 inhibition assay; type: biochemical; details: 3H-cAMP substrate, SPA
Description: Reactions are initiated by addition of the cyclic nucleotide substrate, and reactions are allowed to proceed for one hr at room temperature before being terminated through mixing with 15 uL 8 mg/mL yttrium silicate SPA beads (Amersham). […] Following a 1 hour incubation the reactions were terminated by addition of 15 uL 8 mg/mL yttrium silicate SPA beads (Amersham). […] IC50 values were calculated by nonlinear regression using XLfit (IDBS).

[1] = Blood Brain Barrier penetration (brain-to-plasma distribution); type: in vivo, Male CD mice; details: mouse, 10 mg/kg subcutaneous
Description: Male CD mice (20-24 g) were housed pair-wise with free access to food and water for an acclimatization period of 3-7 days before initiation of experiments. Prior to dosing the animals were fasted overnight. During testing, mice were kept in individual cages. The brain-to-plasma distribution was assessed 30 minutes and 2 hours after subcutaneous administration of the test compound at a dose of 10 mg/kg (n=3 at each time point). The dose volume was 10 ml/kg using appropriate vehicle to solubilize each test compound. At the time of sampling, animals were anesthetized with isoflurane and a systemic blood sample collected by cardiac puncture into vacutainers containing sodium heparin as anti-coagulant. The blood was centrifuged at 3500 rpm for 10 minutes at 4° C. to obtain plasma. Following decapitation, brains were dissected out and transferred to pre-weighed vessels followed by tissue weights determination. Plasma and brains were stored at −80° C. until quantitative bioanalysis by LC-MS/MS. Results are expressed as ng/ml for plasma and ng/g for brain samples.

Chain of PDE9 (O76083 whole entry): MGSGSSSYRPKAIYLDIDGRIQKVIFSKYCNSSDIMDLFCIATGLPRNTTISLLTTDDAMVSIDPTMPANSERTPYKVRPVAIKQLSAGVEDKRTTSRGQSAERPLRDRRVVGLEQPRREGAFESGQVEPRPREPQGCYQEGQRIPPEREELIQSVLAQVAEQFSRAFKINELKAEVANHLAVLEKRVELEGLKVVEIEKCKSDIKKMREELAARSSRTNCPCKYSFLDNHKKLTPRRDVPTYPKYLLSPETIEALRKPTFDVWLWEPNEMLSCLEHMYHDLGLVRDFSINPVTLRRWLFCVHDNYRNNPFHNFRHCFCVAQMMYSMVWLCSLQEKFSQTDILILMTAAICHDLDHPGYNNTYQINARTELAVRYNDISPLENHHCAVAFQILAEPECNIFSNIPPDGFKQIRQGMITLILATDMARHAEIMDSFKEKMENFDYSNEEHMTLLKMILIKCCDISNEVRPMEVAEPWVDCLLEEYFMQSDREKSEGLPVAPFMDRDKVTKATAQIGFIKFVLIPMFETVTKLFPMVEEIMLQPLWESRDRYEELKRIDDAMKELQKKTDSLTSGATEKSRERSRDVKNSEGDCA

SMILES	IC50 (PDE9) [nM]	Brain concentration after 120 minutes [1]	Brain concentration after 30 minutes ([1]; 30 min)
C[C@@H]1CN(Cc2ncccn2)C[C@H]1c1cn2c(C3CCOCC3)ncc2c(=O)[nH]1 (single isomer, unassigned) [Compound (P3, enantiomer 1)]	49	120 mm.: 7 ng/mL	–
O=c1[nH]c(CN2CC(Oc3cccnc3)C2)cn2c(C3CCOCC3)ncc12 [Compound (P2), 6-[3-(pyridin-3-yloxy)-azetidin-1-ylmethyl]-3-(tetrahydropyran-4-yl)-7H-imidazo[1,5-a]pyrazin-8-one]	–	Below detection	Below detection
